In patent US8389247B2, “Physiogenomic method for predicting diabetes and metabolic syndromes induced by psychotropic drugs” (priority 2006, dated 2013):

Experiments:
[1] = Physiogenomic SNP association screen: single-SNP coefficients for metabolic syndrome outcomes in patients on psychotropic drugs
Text: Various SNPs associated with, for example, the observation of various parameters of metabolic syndromes in patients on psychotropic drugs were screened. The endpoints analyzed were the blood levels of LDL, HDL, and glucose; blood pressure; body mass index; waist circumference; and metabolic syndromes index. The physiogenomic model was developed using the following procedure: 1) Establish a covariate model using only the demographic and clinical variables, 2) Screen for associated genetic markers by testing each SNP against the unexplained residual of the covariate model, and 3) Establish a revised model incorporating the significant associations from the SNP screen. All models are simple linear regression models, but other well-known statistical methods are contemplated to be useful.
In the SNP screen (step 2), the p-values for each SNP were obtained by adding the SNP to the covariate model and comparing the resulting model improvement with up to 10,000 simulated model improvements using the same data set, but with the genotype data randomly permuted to remove any true association. This method produces a p-value that is a direct, unbiased, and model-free estimate of the probability of finding a model as good as the one tested when the null hypothesis of no association is true. All SNPs with a screening p-value of better than 0.003 were selected to be included in the physiogenomic model (step 3).
Data Analysis. Covariates were analyzed using multiple linear regression and the stepwise procedure. An extended linear model was constructed including the significant covariate and the SNP genotype. SNP genotype was coded quantitatively as a numerical variable indicating the number of minor alleles: 0 for major homozygotes, 1 for heterozygotes, and 2 for minor homozygotes. The F-statistic p-value for the SNP variable was used to evaluate the significance of association. The validity of the p-values were tested by performance of an independent calculation of the p-values using permutation testing. To account for the multiple testing of multiple SNPs, adjusted p-values were calculated using Benjamini and Hochbergs false discovery rate (FDR) procedure [Reinere A, Yekutiele D, Benjamini Y: Identifying differentially expressed genes using false discovery rate controlling procedures. Bioinformatics 19:368-375 (2003); Benjamini Y, Hochberg Y: Controlling the false discovery rate: a practical and powerful approach to multiple testing. Journal of the Royal Statistical Society, Series B 57:289-300 (1995); Benjamini Y, Hochberg Y: On the adaptive control of the false discovery rate in multiple testing with independent statistics. Journal of Educational and Behavioral Statistics 25:60-83 (2000)]. In addition, the power for detecting an association based on the Bonferroni multiple comparison adjustment was evaluated. For each SNP, the effect size in standard deviations that was necessary for detection of an association at a power of 80% (20% false negative rate) was calculated using the formula: […]

[2] = Outcome variables of patients on each psychotropic drug broken down by demographic factors (Covariates tables); format: in vivo, human
[3] = Text: b. Model Building. […] A model was developed for the purpose of predicting a given response (Y) to psychotropic drugs. A linear model for subjects in a group of patients subjected to psychotropic drugs was used in which the response of interest can be expressed as follows:
[formula] where Mi are the dummy marker variables indicating the presence of specified genotypes and Dj are demographic and clinical covariates. The model parameters that are to be estimated from the data are R0, αi and βj. […] S-plus provides very good support for algorithms that provide these estimates for the initial linear regression models, as well other generalized linear models that may be used when the error distribution is not normal. For continuous variables, generalized additive models, including cubic splines in order to appropriately assess the form for the dose-response relationship may also be considered [Hastie T, Tibshirani R. Generalized additive models. Stat. Sci. 1: 297-318 (1986); Durrleman S, Simon R. Flexible regression models with cubic splines. Statistics in Medicine 8:551-561 (1989)].
In addition to optimizing the parameters, model refinement is performed. The first phase of the regression analysis will consist of considering a set of simplified models by eliminating each variable in turn and re-optimizing the likelihood function. The ratio between the two maximum likelihoods of the original vs. the simplified model then provides a significance measure for the contribution of each variable to the model.
Each physiotype in this particular embodiment consists of a selection of markers, and intercept value (C), and a coefficient (ci) for each marker. […] The predicted LDL response for a given individual is then given by the formula:
[formula] where C is the intercept, the ci are the coefficients and the gi are the genotypes, coded 0 for the wild type allele homozygote, 1 for the heterozygote, and 2 for the variant allele homozygote.

[4] = cited from earlier work

## O=C1CCc2ccc(OCCCCN3CCN(c4cccc(Cl)c4Cl)CC3)cc2N1 [Arapiprazole, arapiprazole]
[1]; SNP rs264 LPL allele AG p 3.00E−03
  Coeff. LDL Cholesterol: −26.5842
[1]; SNP rs7412 APOE allele TC p 1.42E−02
  Coeff. LDL Cholesterol: −26.3527
[1]; SNP rs140700 SLC6A4 allele AG p 1.76E−02
  Coeff. LDL Cholesterol: 34.06
[1]; SNP rs231460 PYY allele TC p 7.02E−03
  Coeff. LDL Cholesterol: −22.8702
[1]; SNP rs701492 GAD1 allele TC p 1.25E−04
  Coeff. LDL Cholesterol: −41.2222
[1]; SNP rs1057910 CYP2C9 allele AC p 9.03E−04
  Coeff. LDL Cholesterol: 25.75
[1]; SNP rs1176744 HTR3B allele TG p 2.77E−02
  Coeff. LDL Cholesterol: −14.3889
[1]; SNP rs1805002 CCKBR allele AG p 3.93E−02
  Coeff. LDL Cholesterol: −32.875
[1]; SNP rs1871143 GYS2 allele TG p 4.09E−02
  Coeff. LDL Cholesterol: −14.1588
[1]; SNP rs2070937 HP allele AG p 3.68E−02
  Coeff. LDL Cholesterol: 16.59
[1]; SNP rs2192752 IL1R1 allele AC p 3.35E−02
  Coeff. LDL Cholesterol: 19.88
[1]; SNP rs2227852 DRD5 allele AG p 1.36E−02
  Coeff. LDL Cholesterol: −28.1852
[1]; SNP rs2229416 ACACA allele AG p 1.41E−02
  Coeff. LDL Cholesterol: −29.2143
[1]; SNP rs2306179 GYS2 allele AG p 2.72E−02
  Coeff. LDL Cholesterol: −15.1786
[1]; SNP rs3760396 CCL2 allele GC p 4.10E−02
  Coeff. LDL Cholesterol: −15.8942
[1]; SNP rs3762611 GABRA4 allele AG p 1.49E−02
  Coeff. LDL Cholesterol: −18.7032
[1]; SNP rs3822222 CCKAR allele TC p 8.57E−03
  Coeff. LDL Cholesterol: 24.98
[1]; SNP rs4795180 ACACA allele TG p 1.41E−02
  Coeff. LDL Cholesterol: −29.2143
[1]; SNP rs5030390 ICAM1 allele AG p 1.30E−02
  Coeff. LDL Cholesterol: −27.8333
[1]; SNP rs7816340 ADRA1A allele TC p 4.36E−02
  Coeff. LDL Cholesterol: −25.5911
[1]; SNP rs9904270 RARA allele TC p 2.39E−03
  Coeff. LDL Cholesterol: −37.1182
[1]; SNP rs10509676 CYP2C19 allele TA p 1.50E−02
  Coeff. LDL Cholesterol: −24.25
[2]; Age 20-30, N 8
  LDL: 90.5
[2]; Age 30-40, N 16
  LDL: 97.19
[2]; Age 40-50, N 8
  LDL: 94.25
[2]; Age 50-60, N 4
  LDL: 83
[2]; All, N 36
  LDL: 93.47
[2]; Heritage African Am, N 3
  LDL: 104
[2]; Heritage Caucasian, N 33
  LDL: 92.52
[2]; female, N 10
  LDL: 87
[2]; human, in vivo
  BM: 86.58
  Waist: 101.34
  dBP: 75.86
  sBP: 122.17
[2]; male, N 26
  LDL: 95.96
[2]; patients on the named drug
  LDL: 93.47
[3]
  Intercept (C), Blood Glucose Physiotype: Intercept (C) = 0.3665
  Intercept (C), Body Mass Physiotype: Intercept (C) = 0.1845
  Intercept (C), Diastolic Blood Pressure Physiotype: Intercept (C) = −0.05506
  Intercept (C), HDL Cholesterol Physiotype: Intercept (C) = −0.3706
  Intercept (C), LDL Cholesterol Physiotype: Intercept (C) = 0.2441
  Intercept (C), Log (TG) Physiotype: Intercept (C) = 0.9167
  Intercept (C), Systolic Blood Pressure Physiotype: Intercept (C) = −0.1862
  Intercept (C), Waist circumference Physiotype: Intercept (C) = −0.888

## O=C1Cc2cc(CCN3CCN(c4nsc5ccccc45)CC3)c(Cl)cc2N1 [Ziprasidone, ziprasidone]
[1]; SNP rs40318, gene PIK3R1, allele TC, p 4.80E−02
  Coeff. LDL Cholesterol: 22.72
[1]; SNP rs1322783, gene DISC1, allele TC, p 1.26E−02
  Coeff. LDL Cholesterol: −27.8566
[1]; SNP rs1614845, gene HRH3, allele TC, p 4.20E−02
  Coeff. LDL Cholesterol: −21.1697
[1]; SNP rs1951795, gene HIF1A, allele AC, p 2.81E−02
  Coeff. LDL Cholesterol: 17.21
[1]; SNP rs2067477, gene CHRM1, allele AC, p 4.47E−02
  Coeff. LDL Cholesterol: −23.7833
[1]; SNP rs2228139, gene IL1R1, allele GC, p 1.74E−02
  Coeff. LDL Cholesterol: −42.4134
[1]; SNP rs2269935, gene PFKM, allele AC, p 1.38E−02
  Coeff. LDL Cholesterol: −29.0481
[1]; SNP rs2301108, gene HIF1A, allele AG, p 4.60E−03
  Coeff. LDL Cholesterol: 27.41
[1]; SNP rs2856929, gene PKM2, allele AG, p 2.55E−02
  Coeff. LDL Cholesterol: −21.0303
[1]; SNP rs3757868, gene ACHE, allele AG, p 2.11E−02
  Coeff. HDL Cholesterol: 9.221
[1]; SNP rs3757868, gene ACHE, allele AG, p 2.47E−02
  Coeff. Ratio of Total Cholesterol to HDL Cholesterol: −0.8869
[1]; SNP rs3816873, gene MTP, allele TC, p 2.73E−02
  Coeff. LDL Cholesterol: −19.1531
[1]; SNP rs6700734, gene TNFSF6, allele AG, p 1.15E−02
  Coeff. LDL Cholesterol: 21.53
[1]; SNP rs6967107, gene WBSCR14, allele AC, p 5.00E−02
  Coeff. LDL Cholesterol: −28.3763
[1]; SNP rs6976017, gene CYP3A5, allele AG, p 4.34E−03
  Coeff. LDL Cholesterol: −45.408
[1]; SNP rs7816340, gene ADRA1A, allele TC, p 4.22E−02
  Coeff. LDL Cholesterol: 24.97
[1]; SNP rs10082776, gene RARG, allele AG, p 1.92E−02
  Coeff. LDL Cholesterol: −24.15
[2]; Age 20-30
  LDL: 79.20
[2]; Age 30-40
  LDL: 98.42
[2]; Age 40-50
  LDL: 75.18
[2]; Age 50-60
  LDL: 135.00
[2]; Age 60-70
  LDL: 154.00
[2]; Age <20
  LDL: 89.50
[2]; All
  LDL: 88.32
[2]; Gender female
  LDL: 98.11
[2]; Gender male
  LDL: 79.05
[2]; Heritage AA
  LDL: 63.17
[2]; Heritage Cauc.
  LDL: 93.19
[2]; human, in vivo
  Log (TG): 4.968
[2]; patients on the named drug
  LDL: 88.32

## CN1CCN(C2=Nc3cc(Cl)ccc3Nc3ccccc32)CC1 [clozapine]
[4]
  treated patients with induced weight gain, diabetes and other metabolic derangements: 50%
